Source: US20110111115A1, “REBAUDIOSIDE A POLYMORPHS AND METHODS TO PREPARE THEM” (priority 2009, published 2011)

Assay: Solubility in water of the rebaudioside A polymorph
Format: physicochemical
Details: 25° C.

Q: With `C=C1C[C@@]23CC[C@H]4[C@@](C)(CCC[C@@]4(C)C(=O)O[C@@H]4O[C@H](CO)[C@@H](O)[C@H](O)[C@H]4O)[C@@H]2CC[C@]1(O[C@@H]1O[C@H](CO)[C@@H](O)[C@H](O[C@@H]2O[C@H](CO)[C@@H](O)[C@H](O)[C@H]2O)[C@H]1O[C@@H]1O[C@H](CO)[C@@H](O)[C@H](O)[C@H]1O)C3` [rebaudioside A polymorph, rebaudioside A] as the molecule, how does the solubility in water read?
A: about 1.5 mg/ml
